Consider ten compounds from patent US20220281819A1, “THERAPEUTIC COMPOUNDS AND METHODS OF USE” (priority 2020, published 2022).

One may read the IC50 as the point on the concentration scale where inhibition reaches its midpoint.

What all share (type): binding
For experiment [1], the target named is T1, TEAD2 (Homo sapiens, UniProt Q15562). Put plainly: Lipid HTRF (TR-FRET lipid pocket probe competition), 30 min pre-incubation, TEAD2. As to conditions: His-tagged TEAD2, 30 minutes pre-incubation with compound at room temperature; read-out: Lipid HTRF TEAD2 IC50. The method, boiled down: (§1)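 His-tagged TEAD was pre-incubated with compound for 30 min at room temperature, then with a biotinylated lipid-pocket probe for 60 min. Europium anti-His and XL665-streptavidin were added for 30 min. Probe displacement lowers the TR-FRET signal; IC50 from a 4-parameter fit.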
T1 sequence (Q15562 whole entry, species assumed): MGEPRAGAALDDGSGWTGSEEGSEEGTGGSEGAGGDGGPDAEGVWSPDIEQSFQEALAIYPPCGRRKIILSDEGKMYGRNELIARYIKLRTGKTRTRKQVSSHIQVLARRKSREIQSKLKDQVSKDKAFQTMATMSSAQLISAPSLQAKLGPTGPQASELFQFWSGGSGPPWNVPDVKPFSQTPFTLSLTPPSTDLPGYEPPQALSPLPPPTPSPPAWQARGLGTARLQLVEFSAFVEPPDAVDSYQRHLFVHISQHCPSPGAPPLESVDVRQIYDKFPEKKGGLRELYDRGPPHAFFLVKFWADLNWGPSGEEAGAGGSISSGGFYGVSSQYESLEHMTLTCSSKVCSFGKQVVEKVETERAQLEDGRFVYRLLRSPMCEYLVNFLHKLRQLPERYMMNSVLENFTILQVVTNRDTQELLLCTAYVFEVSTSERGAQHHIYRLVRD
In general terms: TR-FRET usually uses a lanthanide donor and a delayed reading to cut background.

A further experiment addresses TEAD3 (Homo sapiens, UniProt Q99594). Put plainly: Lipid HTRF (TR-FRET lipid pocket probe competition), 30 min pre-incubation, TEAD3. As to conditions: His-tagged TEAD3, 30 minutes pre-incubation with compound at room temperature; read-out: Lipid HTRF TEAD3 IC50. The procedure, abridged:
as §1

Another experiment concerns the target TEAD1 (Homo sapiens, UniProt P28347). Put plainly: Lipid HTRF (TR-FRET lipid pocket probe competition), 30 min pre-incubation, TEAD1. As to conditions: His-tagged TEAD1, 30 minutes pre-incubation with compound at room temperature; read-out: Lipid HTRF TEAD1 IC50. The procedure, abridged: as §1
Another experiment deals with TEAD4 (Homo sapiens, UniProt Q15561). Put plainly: Lipid HTRF (TR-FRET lipid pocket probe competition), 30 min pre-incubation, TEAD4. The conditions noted are these: His-tagged TEAD4, 30 minutes pre-incubation with compound at room temperature; read-out: Lipid HTRF TEAD4 IC50. The procedure, abridged:
as §1

Experiment [2] addresses T1, TEAD2. Nature of the experiment: TEAD2 Lipid + 4 hr HTRF WUXI (TR-FRET lipid pocket probe competition, 4 h pre-incubation). As to conditions: 4 hours pre-incubation with compound at room temperature; Table 3. The protocol:
His-tagged TEAD2 or 4 proteins are pre-incubated with TEAD project compounds for 4 hours at room temperature. Biotinylated lipid pocket probes are then added to the TEAD/Compound mixture and incubated for 60 minutes at room temperature. The lipid pocket probe competes with the test compound for the TEAD lipid pocket until equilibrium is reached. After 60 minutes, Europium labelled anti-His (Perkin Elmer #AD0110) and XL665 labelled streptavidin (CIS Bio 610SAXAC) are added to the TEAD/test compound/lipid pocket mixture and incubated for 30 minutes. TR-FRET values are then measured using an EnVision multi-label plate reader (Perkin Elmer Cat#2104-0010A.) If the lipid pocket probe binds to TEAD as expected, a TR-FRET signal results from the proximity of anti-His Eu and XL665. If a TEAD lipid pocket binder such as binds and displaces the lipid pocket probe, the disruption of the TEAD:probe interaction results in a decrease in TR-FRET signal. The potency of compounds as TEAD lipid pocket binders is determined by IC50 value generated using a non-linear 4 parameter curve fit.

TEAD1, sequence (P28347 whole entry, species assumed): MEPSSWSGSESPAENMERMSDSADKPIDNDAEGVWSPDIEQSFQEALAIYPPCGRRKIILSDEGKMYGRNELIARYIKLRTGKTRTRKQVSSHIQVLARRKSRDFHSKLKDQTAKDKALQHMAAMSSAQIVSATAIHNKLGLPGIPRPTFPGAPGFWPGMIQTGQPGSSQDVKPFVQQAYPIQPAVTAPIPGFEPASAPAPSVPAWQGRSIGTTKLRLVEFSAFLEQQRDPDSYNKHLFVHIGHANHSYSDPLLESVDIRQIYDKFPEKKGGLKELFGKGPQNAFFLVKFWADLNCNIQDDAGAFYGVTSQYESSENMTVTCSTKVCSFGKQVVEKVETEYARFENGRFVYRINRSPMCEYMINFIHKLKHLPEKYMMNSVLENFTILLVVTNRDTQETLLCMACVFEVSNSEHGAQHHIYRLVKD
TEAD4, sequence (Q15561 whole entry, species assumed): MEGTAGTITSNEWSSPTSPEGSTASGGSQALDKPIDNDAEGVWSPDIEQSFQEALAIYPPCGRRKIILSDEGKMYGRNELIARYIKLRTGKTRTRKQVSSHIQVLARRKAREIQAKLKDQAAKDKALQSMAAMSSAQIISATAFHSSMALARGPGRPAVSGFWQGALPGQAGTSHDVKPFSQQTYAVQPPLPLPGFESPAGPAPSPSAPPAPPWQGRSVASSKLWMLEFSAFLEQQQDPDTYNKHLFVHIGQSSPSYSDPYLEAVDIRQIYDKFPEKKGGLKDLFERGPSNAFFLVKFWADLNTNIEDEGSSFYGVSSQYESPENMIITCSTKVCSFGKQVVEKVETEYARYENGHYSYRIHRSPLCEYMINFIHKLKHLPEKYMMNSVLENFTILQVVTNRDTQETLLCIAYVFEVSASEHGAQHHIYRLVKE
TEAD3, sequence (Q99594 whole entry, species assumed): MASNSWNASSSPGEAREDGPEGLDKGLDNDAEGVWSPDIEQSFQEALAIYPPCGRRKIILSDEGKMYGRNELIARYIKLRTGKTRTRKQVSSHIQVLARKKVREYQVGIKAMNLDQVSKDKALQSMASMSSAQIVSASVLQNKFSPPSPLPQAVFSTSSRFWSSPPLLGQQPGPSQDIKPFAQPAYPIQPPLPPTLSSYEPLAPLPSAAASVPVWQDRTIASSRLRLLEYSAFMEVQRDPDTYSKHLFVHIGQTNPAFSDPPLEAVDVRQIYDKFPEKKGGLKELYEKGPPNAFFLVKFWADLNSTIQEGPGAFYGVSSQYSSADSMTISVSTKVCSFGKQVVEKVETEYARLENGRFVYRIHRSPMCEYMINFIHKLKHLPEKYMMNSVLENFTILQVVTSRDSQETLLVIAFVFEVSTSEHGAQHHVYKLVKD

Take `CC(C)c1ccc(-c2cc(NC(=O)[C@H]3CO3)c(C#N)c3c2OCC3)cc1` [Final product from Example 45, (R)-N-(4-cyano-7-(4-isopropylphenyl)-2,3-dihydrobenzofuran-5-yl)oxirane-2-carboxamide]: the half-inhibitory concentration (IC50) on TEAD2 [1] is 2800 nM; on TEAD3 it was 36000 nM; at TEAD1 it was 2900 nM; on TEAD4 it was 640 nM.
The like results for `CC(C)c1ccc(-c2cc(NC(=O)N(C)C#N)c(C#N)c3c2OCC3)cc1` [Final product from Example 46, 1-cyano-3-(4-cyano-7-(4-isopropylphenyl)-2,3-dihydrobenzofuran-5-yl)-1-methylurea] were, in that order, 180 nM, 1400 nM, 170 nM and 70 nM.
The like results for `CC(C)c1ccc(-c2cc(N(C)C(=O)NC#N)c(C#N)c3c2OCC3)cc1` [Final product from Example 47, 3-cyano-1-[4-cyano-7-(4-isopropylphenyl)-2,3-dihydrobenzofuran-5-yl]-1-methyl-urea] were, in that order, 2700 nM, 30000 nM, 2900 nM and 840 nM.
As to `CC(F)(F)c1ccc(-c2cc(NC(=O)[C@@H]3CO3)c(C#N)c3c2OCC3)cc1` [Final product from Example 48, (S)-N-(4-cyano-7-(4-(1,1-difluoroethyl)phenyl)-2,3-dihydrobenzofuran-5-yl)oxirane-2-carboxamide], the IC50 on TEAD2 [1] was 60 nM; at TEAD3, 180 nM; at TEAD1, 50 nM; at TEAD4 it was 90 nM.
Turning to `CC(F)(F)c1ccc(-c2cc(NC(=O)[C@H]3CO3)c(C#N)c3c2OCC3)cc1` [Final product from Example 49, (R)-N-(4-cyano-7-(4-(1,1-difluoroethyl)phenyl)-2,3-dihydrobenzofuran-5-yl)oxirane-2-carboxamide], the half-maximal inhibitory concentration (IC50) at TEAD2 [1] was determined as 4100 nM; at TEAD3 it was 9100 nM; on TEAD1, 2900 nM; on TEAD4, 1100 nM.
In the same order, the values of `N#Cc1c(NC(=O)[C@@H]2CO2)cc(-c2ccc(OC(F)(F)F)cc2)c2c1CCO2` [Final product from Example 50, (S)-N-(4-cyano-7-(4-(trifluoromethoxy)phenyl)-2,3-dihydrobenzofuran-5-yl)oxirane-2-carboxamide] are 40 nM, 110 nM, 30 nM and 50 nM.
The like results for `N#Cc1c(NC(=O)[C@H]2CO2)cc(-c2ccc(OC(F)(F)F)cc2)c2c1CCO2` [Final product from Example 51, (R)-N-(4-Cyano-7-(4-(trifluoromethoxy)phenyl)-2,3-dihydrobenzofuran-5-yl)oxirane-2-carboxamide] were, in that order, 4200 nM, greater than 50000 nM, 11000 nM and 2200 nM.
`C=CC(=O)Nc1cc(-c2ccc(OC(F)(F)F)cc2)c2c(c1CO)CCO2` [Final product from Example 53, N-(4-(Hydroxymethyl)-7-(4-(trifluoromethoxy)phenyl)-2,3-dihydrobenzofuran-5-yl)acrylamide]: the half-maximal inhibitory concentration (IC50) on TEAD2 [2] came out at 3.4 nM.
Same read-out and setting: to `C=CC(=O)Nc1cc(-c2ccc(S(F)(F)(F)(F)F)cc2)c2c(c1CO)CCO2` [Final product from Example 54, N-[4-(Hydroxymethyl)-7-[4-(pentafluoro-6-sulfanyl)phenyl]-2,3-dihydrobenzofuran-5-yl]prop-2-enamide] belongs 8.6 nM; to `C=CC(=O)Nc1cc(-c2ccc(OC(F)(F)F)cc2)c2ncsc2c1C#N` [Final product from Example 55, N-(7-Cyano-4-(4-(trifluoromethoxy)phenyl)benzo[d]thiazol-6-yl)acrylamide], 18.9 nM.
